# Test system: Plasmodium falciparum (strain 3D7)
# Test: Parasiticidal effect: level of parasitemia (percentage of MIRBCs) after bulk flow treatment of P. falciparum-infected human RBCs
# Assay type: cell-based
# Conditions: chloroquine 1 μM added immediately prior to flow treatment; PTNB mode 70 ps laser pulse; level of MIRBCs at 24 hours; FIG. 12c
compound,measurement,value
CCN(CC)CCCC(C)Nc1ccnc2cc(Cl)ccc12 (stereo not shown) [chloroquine],parasiticidal efficacy of PTNB mode compared with chloroquine,three-fold higher parasiticidal efficacy than chloroquine

# — patent US20190345478A1, “T[…] AND SYSTEMS FOR DIAGNOSIS AND TREATMENT OF MALARIA” (WILLIAM MARSH RICE UNIVERSITY, priority 2012, published 2019)
